# Tested on: A549 tumor cells
# Assay: A549 subcutaneous mouse xenograft model, GRN163L and/or gemcitabine
# Assay type: in vivo, mice
# Conditions: A549 s.c. xenograft, 60 days; gemcitabine 100 mg/kg IP, GRN163L 15 mg/kg IP
# Method: In one exemplary method, gemcitabine is administered in combination with a telomerase-inhibitor oligonucleotide targeted against hTR. […] Groups of 10 mice each were treated in accordance with one of three protocols: (1) Gemcitabine (100 mg/kg, IP) was administered 2 times/week for the first 1.5 weeks, then once weekly for the remainder of the study. […] (3) The two agents were administered together according to the individual-agent protocols.
structure (smiles),measurement,value
"Cl.Nc1ccn([C@@H]2O[C@H](CO)[C@@H](O)C2(F)F)c(=O)n1 (single isomer, unassigned) [gemcitabine, 2′-deoxy-2′,2′-difluorocytidine monohydrochloride ((beta)-isomer)]",tumor growth during the treatment period,effective in preventing tumor growth
